The values that follow come from patent US20250320209A1, “Salts and Solid Forms of Sonrotoclax Intermediate” (BeOne Medicines I GmbH, priority 2022, published 2025).

A short description of data set [1]: Salt formation of Compound 2 with seven acids in seven organic solvents: physical form obtained. Type of data set: physicochemical. Particulars: for physical form of the obtained salt: in certain organic solvents (summary of Table 1); for physical form of Compound 2 salt: 10 mL, acid 1.73 mmol.
Protocol: In one example, Compound 2 (1.0 g, 1.73 mmol) in MTBE (10 mL) solution and oxalic acid (0.16 g, 1.73 mmol) was added dropwise. The reaction mixture was stirred for about 6 hours and filtered to obtain a wet cake of methyl 4-(2-{(2S)-2-[2-(propan-2-yl)phenyl]pyrrolidin-1-yl}-7-azaspiro[3.5]nonan-7-yl)-2-[(1H-pyrrolo[2,3-b]pyridin-5-yl)oxy]benzoate oxalate salt (Compound 3).
The other acids were used as the following amounts, D-(−)-tartaric (0.26 g, 1.73 mmol), p-toluenesulfonic acid (0.3 g, 1.73 mmol), D-DTTA (0.67 g, 1.73 mmol), Citric acid (0.33 g, 1.73 mmol), Malic acid (0.23 g, 1.73 mmol), Maleic acid (0.20 g, 1.73 mmol); and the other organic solvents were used with 10 mL volume.
The nature of data set [2]: Properties of the solid oxalate salt of Compound 2 as stated in text.

With `COC(=O)c1ccc(N2CCC3(CC2)CC(N2CCC[C@H]2c2ccccc2C(C)C)C3)cc1Oc1cnc2[nH]ccc2c1.O=C(O)C(=O)O` [Compound 3, methyl 4-(2-{(2S)-2-[2-(propan-2-yl)phenyl]pyrrolidin-1-yl}-7-azaspiro[3.5]nonan-7-yl)-2-[(1H-pyrrolo[2,3-b]pyridin-5-yl)oxy]benzoate oxalate salt], the “physical form of the obtained salt” value in data set [1] is listed as “solid form”. Moreover, the “physical form of Compound 2 salt” value in data set [1] (solvent 2-MeTHF) is “oil”; in data set [1] (solvent Acetone), “Clean solution”; in data set [1] (solvent DCM) it was “Clean solution”; in data set [1] (solvent EA), “oil”; in data set [1] (solvent IPAc) it was “moisture”; in data set [1] (solvent MTBE) it was “Fine solid”. Besides, in data set [1] (solvent MeOH), the “physical form of Compound 2 salt” value is “Clean solution”. Moreover, the hydroscopic property entry in data set [2] (solid (wet cake) obtained from MTBE) is given as “low”. Also, the stability entry in data set [2] (solid salt, no test described) is on record as “very good”.

As to `Cc1ccc(C(=O)O[C@H](C(=O)O)[C@H](OC(=O)c2ccc(C)cc2)C(=O)O)cc1` [D-DTTA], the “physical form of the obtained salt” value in data set [1] is “solid form”. Further, the “physical form of Compound 2 salt” value in data set [1] (solvent 2-MeTHF) is on record as “Clean solution”; in data set [1] (solvent Acetone), “Clean solution”; in data set [1] (solvent DCM), “Clean solution”; in data set [1] (solvent EA) it was “Clean solution”; in data set [1] (solvent IPAc), “oil”; in data set [1] (solvent MTBE) it was “Fine solid”. Moreover, the “physical form of Compound 2 salt” value in data set [1] (solvent MeOH) is reported as “Clean solution”.

For `Cc1ccc(S(=O)(=O)O)cc1` [p-toluenesulfonic acid], the “physical form of Compound 2 salt” value is recorded as “Clean solution” in data set [1] (solvent 2-MeTHF); “Clean solution” in data set [1] (solvent Acetone); “Clean solution” in data set [1] (solvent DCM); “Clean solution” in data set [1] (solvent EA); “Clean solution” in data set [1] (solvent IPAc); “moisture absorption” in data set [1] (solvent MTBE). In addition, the “physical form of Compound 2 salt” value in data set [1] (solvent MeOH) is “Clean solution”.

With Citric acid, the “physical form of Compound 2 salt” value was “oil” in data set [1] (solvent 2-MeTHF); “Clean” in data set [1] (solvent Acetone); “Clean” in data set [1] (solvent DCM); “oil” in data set [1] (solvent EA); “moisture” in data set [1] (solvent IPAc); “moisture” in data set [1] (solvent MTBE). Further, in data set [1] (solvent MeOH), the “physical form of Compound 2 salt” value was “Clean”.

As for Maleic acid, the “physical form of Compound 2 salt” value in data set [1] (solvent 2-MeTHF) is listed as “Clean solution”; in data set [1] (solvent Acetone), “Clean solution”; in data set [1] (solvent DCM), “Clean solution”; in data set [1] (solvent EA), “Clean solution”; in data set [1] (solvent IPAc) it was “oil”; in data set [1] (solvent MTBE), “moisture”. For the same compound, the “physical form of Compound 2 salt” value in data set [1] (solvent MeOH) is on record as “Clean solution”.

With Malic acid, the “physical form of Compound 2 salt” value in data set [1] (solvent 2-MeTHF) was “Clean solution”; in data set [1] (solvent Acetone), “Clean solution”; in data set [1] (solvent DCM) it was “Clean solution”; in data set [1] (solvent EA) it was “oil”; in data set [1] (solvent IPAc) it was “oil”; in data set [1] (solvent MTBE), “moisture”. Moreover, in data set [1] (solvent MeOH), the “physical form of Compound 2 salt” value is on record as “Clean solution”.
